In patent publication US20240114940A1, “SACCHARIDE COMPOSITIONS HAVING SUCROSE-LIKE CHARACTERISTICS AND RELATED METHODS” (priority 2021, published 2024):

Assays:
Format in all cases: physicochemical
[1] = pH and absorbance at 420 nm of closed-system heated solutions
[2] = Furfural and 5-hydroxymethylfurfural in headspace of heated solutions; details: solutions in water
Experimental: The solutions were rapidly heated to set temperatures and held at temperature for 5 min. After 5 min, the samples were rapidly cooled. […] (FIG. 18). The data is also plotted in FIG. 18 until 180° C.

[3] = Breakdown products by GCMS without an amino acid present; details: pH 7, 160° C., 10 min
Experimental: Controls were prepared addition of 1 mL of pH 7 buffer to the amino acids. The samples were rapidly heated to 160° C. and held at this temperature for 10 min. Samples were rapidly cooled afterwards, and absorbance at 500 nm was measured for each reaction mixture. Volatiles were analysed using gas chromatography mass spectrometry (GCMS) analysis. An Agilent Technologies 5975B Inert XL MSD gas chromatography, single quadruple mass spectrometer was used for analysis of volatiles. Samples were added to separate GCMS headspace vials and weighed. 0.03 g of 0.01% 3-heptanone in water was added and the vial was sealed for GCMS solid phase micro extraction (SPME) analysis. Samples were analysed in a randomized order. Samples were incubated and agitated at 250 RPM, at 60° C. for 15 min prior to SPME analysis of volatiles. The SPME fibre (50/30 DVB/CAR/PDMS, 23 Ga) extracted for 10 min, then thermally desorbed at 250° C. for 5 min. A 30 m×0.25 mm×0.25 μm HP-5MS column was used (Phenomenex, UK). Oven temperature settings: 31° C.-5 min, 5° C./min to 150° C., 30° C./min to 240° C. Inlet settings: 250° C., pressure 10.4 psi, flow 11.2 mL/min, split ratio 7:1. MS operated in full scan mode from 40 to 400 m/z with a scan time of 0.2s. The peak area of the aroma compounds was compared to the peak of the internal standard 3-heptanone and corrected for the weight of the sample.
The concentration of the different classes of Maillard reaction breakdown products is presented in Tables 9B-E. The same data as Tables 9B-E is also presented in FIG. 27. Concentrations are in parts per billion of the difference non-enzymatic breakdown products for the different compositions at 160° C. analysed by GCMS.

Which results are given for `OC[C@H]1O[C@@](CO)(O[C@H]2O[C@H](CO)[C@@H](O)[C@H](O)[C@H]2O)[C@@H](O)[C@@H]1O` [Sucrose]?
A420 after heating to 177° C. ([1]; samples labelled as pH 3): 0.089; A420 before heating ([1]; samples labelled as pH 3): 0.082; pH after heating to 177° C. ([1]; samples labelled as pH 3): 3.08; pH before heating ([1]; samples labelled as pH 3): 3; A420 after heating to 110° C. ([1]; samples labelled as pH 7): 0.086; A420 before heating ([1]; samples labelled as pH 7): 0.115; pH after heating to 110° C. ([1]; samples labelled as pH 7): 6.88; pH after heating to 177° C. ([1]; samples labelled as pH 7): 6.84; pH before heating ([1]; samples labelled as pH 7): 6.78; A420 before heating ([1]; samples labelled as pH 9): 0.087; pH after heating 177° C. ([1]; samples labelled as pH 9): 8.14; pH before heating ([1]; samples labelled as pH 9): 8.76; temperature at which HMF concentration increased [2]: 180 °C; Concentration of 2-Butanone [3]: 178.52 ppb; Concentration of 2-Propanone, 1-hydroxy- [3]: 96.48 ppb; Concentration of 5-methyl furfural [3]: 0 ppb; Concentration of Diacetyl (2,3-Butanedione) [3]: 245.45 ppb; Concentration of Furan, 2-methyl- [3]: 0 ppb; Concentration of Furfural [3]: 1.42 ppb
